The NIST ThermoML archive (doi:10.1021/je0497000)
Numbers after ± are expanded uncertainties. Values belong to the compound of their own block, whether it stands above or below them.

Assays:
[1] = xn = mol fraction of the nth substance listed; details: 298.15 K, 101.3 kPa, Liquid
[2] = Liquid; for mass density / speed of sound: 298.15 K, 101.3 kPa

mass density ([1]; x1 = 0.0498): 1046.71 ± 0.53 kg/m3
speed of sound ([1]; x1 = 0.0498): 1199 ± 2 m/s
mass density ([1]; x1 = 0.1004): 1030.33 ± 0.51 kg/m3
speed of sound ([1]; x1 = 0.1004): 1198 ± 2 m/s
mass density ([1]; x1 = 0.1996): 999.49 ± 0.47 kg/m3
speed of sound ([1]; x1 = 0.1996): 1197 ± 2 m/s
mass density ([1]; x1 = 0.3009): 969.77 ± 0.44 kg/m3
speed of sound ([1]; x1 = 0.3009): 1198 ± 2 m/s
mass density ([1]; x1 = 0.398): 942.67 ± 0.42 kg/m3
speed of sound ([1]; x1 = 0.398): 1198 ± 2 m/s
mass density ([1]; x1 = 0.5036): 914.75 ± 0.41 kg/m3
speed of sound ([1]; x1 = 0.5036): 1200 ± 2 m/s
mass density ([1]; x1 = 0.6017): 890.1 ± 0.38 kg/m3
speed of sound ([1]; x1 = 0.6017): 1201 ± 2 m/s
mass density ([1]; x1 = 0.7046): 865.52 ± 0.36 kg/m3
speed of sound ([1]; x1 = 0.7046): 1203 ± 2 m/s
mass density ([1]; x1 = 0.8012): 843.59 ± 0.35 kg/m3
speed of sound ([1]; x1 = 0.8012): 1206 ± 2 m/s
mass density ([1]; x1 = 0.901): 821.94 ± 0.35 kg/m3
speed of sound ([1]; x1 = 0.901): 1209 ± 2 m/s
mass density ([1]; x1 = 0.9504): 811.55 ± 0.35 kg/m3
speed of sound ([1]; x1 = 0.9504): 1211 ± 2 m/s
mass density ([1]; x1 = 1): 801.39 ± 0.35 kg/m3
speed of sound ([1]; x1 = 1): 1212 ± 2 m/s
Structure (SMILES): CCCC(C)=O [pentan-2-one] + COC(=O)OC

Structure (SMILES): COC(=O)OC [dimethyl carbonate] + CC(C)=O
mass density ([1]; x2 = 0): 1063.33 ± 0.56 kg/m3
speed of sound ([1]; x2 = 0): 1198 ± 2 m/s
mass density ([1]; x2 = 0.0447): 1052.64 ± 0.53 kg/m3
speed of sound ([1]; x2 = 0.0447): 1196 ± 2 m/s
mass density ([1]; x2 = 0.0906): 1041.54 ± 0.51 kg/m3
speed of sound ([1]; x2 = 0.0906): 1195 ± 2 m/s
mass density ([1]; x2 = 0.1886): 1017.22 ± 0.45 kg/m3
speed of sound ([1]; x2 = 0.1886): 1192 ± 2 m/s
mass density ([1]; x2 = 0.2886): 991.68 ± 0.4 kg/m3
speed of sound ([1]; x2 = 0.2886): 1188 ± 2 m/s
mass density ([1]; x2 = 0.3941): 963.86 ± 0.37 kg/m3
speed of sound ([1]; x2 = 0.3941): 1184 ± 2 m/s
mass density ([1]; x2 = 0.4933): 936.83 ± 0.35 kg/m3
speed of sound ([1]; x2 = 0.4933): 1180 ± 2 m/s
mass density ([1]; x2 = 0.5988): 907.17 ± 0.32 kg/m3
speed of sound ([1]; x2 = 0.5988): 1176 ± 2 m/s
mass density ([1]; x2 = 0.7021): 877.06 ± 0.3 kg/m3
speed of sound ([1]; x2 = 0.7021): 1172 ± 2 m/s
mass density ([1]; x2 = 0.7974): 848.41 ± 0.29 kg/m3
speed of sound ([1]; x2 = 0.7974): 1168 ± 2 m/s
mass density ([1]; x2 = 0.9053): 814.88 ± 0.29 kg/m3
speed of sound ([1]; x2 = 0.9053): 1165 ± 2 m/s
mass density ([1]; x2 = 0.9534): 799.51 ± 0.3 kg/m3
speed of sound ([1]; x2 = 0.9534): 1163 ± 2 m/s

Structure (SMILES): COC(=O)OC [dimethyl carbonate] + CCCC(C)=O
mass density ([1]; x2 = 0): 1063.33 ± 0.56 kg/m3
speed of sound ([1]; x2 = 0): 1198 ± 2 m/s

Structure (SMILES): COC(=O)OC [dimethyl carbonate]
mass density [2]: 1063.33 ± 0.56 kg/m3
speed of sound [2]: 1198 ± 2 m/s
Normal boiling temperature [2]: 90.31 ± 0.13 °C

Structure (SMILES): CC(C)=O [acetone] + COC(=O)OC
mass density ([1]; x1 = 1): 784.37 ± 0.31 kg/m3
speed of sound ([1]; x1 = 1): 1162 ± 2 m/s

Structure (SMILES): CC(C)=O [acetone]
mass density [2]: 784.37 ± 0.31 kg/m3
speed of sound [2]: 1162 ± 2 m/s
Normal boiling temperature [2]: 56.12 ± 0.13 °C

Structure (SMILES): CCC(C)=O [butanone] + COC(=O)OC
mass density ([1]; x1 = 0.0499): 1049.31 ± 0.54 kg/m3
speed of sound ([1]; x1 = 0.0499): 1199 ± 2 m/s
mass density ([1]; x1 = 0.0999): 1035.29 ± 0.51 kg/m3
speed of sound ([1]; x1 = 0.0999): 1198 ± 2 m/s
mass density ([1]; x1 = 0.1994): 1007.79 ± 0.47 kg/m3
speed of sound ([1]; x1 = 0.1994): 1196 ± 2 m/s
mass density ([1]; x1 = 0.2996): 980.5 ± 0.44 kg/m3
speed of sound ([1]; x1 = 0.2996): 1194 ± 2 m/s
mass density ([1]; x1 = 0.3986): 953.88 ± 0.42 kg/m3
speed of sound ([1]; x1 = 0.3986): 1192 ± 2 m/s
mass density ([1]; x1 = 0.5027): 926.3 ± 0.41 kg/m3
speed of sound ([1]; x1 = 0.5027): 1191 ± 2 m/s
mass density ([1]; x1 = 0.6014): 900.51 ± 0.38 kg/m3
speed of sound ([1]; x1 = 0.6014): 1190 ± 2 m/s
mass density ([1]; x1 = 0.7102): 872.49 ± 0.36 kg/m3
speed of sound ([1]; x1 = 0.7102): 1190 ± 2 m/s
mass density ([1]; x1 = 0.8038): 848.69 ± 0.35 kg/m3
speed of sound ([1]; x1 = 0.8038): 1191 ± 2 m/s
mass density ([1]; x1 = 0.9043): 823.48 ± 0.35 kg/m3
speed of sound ([1]; x1 = 0.9043): 1191 ± 2 m/s
mass density ([1]; x1 = 0.9514): 811.75 ± 0.35 kg/m3
speed of sound ([1]; x1 = 0.9514): 1191 ± 2 m/s
mass density ([1]; x1 = 1): 799.7 ± 0.35 kg/m3
speed of sound ([1]; x1 = 1): 1192 ± 2 m/s

Structure (SMILES): COC(=O)OC [dimethyl carbonate] + CCC(C)=O
mass density ([1]; x2 = 0): 1063.33 ± 0.56 kg/m3
speed of sound ([1]; x2 = 0): 1198 ± 2 m/s

mass density [2]: 801.39 ± 0.35 kg/m3
speed of sound [2]: 1212 ± 2 m/s
Normal boiling temperature [2]: 102.21 ± 0.13 °C
Structure (SMILES): CCCC(C)=O [pentan-2-one]

Structure (SMILES): CCC(C)=O [butanone]
mass density [2]: 799.7 ± 0.35 kg/m3
speed of sound [2]: 1192 ± 2 m/s
Normal boiling temperature [2]: 79.63 ± 0.13 °C
